Row | melting point [°C] | SMILES
1 | 73.5 to 74.4 | OCc1cc2ccccc2[nH]1
2 | 205 | O=c1[nH]c2ncc(-c3cccnc3)nc2n1CC1CCCCC1
3 | 203 to 205 | COc1ccc(-c2cc3nccnc3[nH]2)cc1OCCO
4 | 160 | O=C(NC1CCC(CCN2CCC(c3cccc4c3CCO4)CC2)CC1)C1CCCO1 (racemic)
5 | 130 | Cc1cnc(-c2ccc(C(F)(F)F)cc2)n1C
6 | 165 to 167 | CCN(C)C(=O)c1cc(C)c(C(c2cc(F)ccc2F)S(=O)(=O)c2ccc(F)cc2)cn1 (stereo not drawn)
7 | 267 to 268 | Nc1c(-c2cc(Cl)ccc2O)c2c(C(F)(F)F)cccc2[nH]c1=O
8 | 109 to 112 | COCC(=O)N[C@@H]1CCOc2ccccc21
9 | 246 to 247 | Cc1cc(NCc2ccccc2)c([N+](=O)[O-])c(=O)[nH]1
10 | 151 to 152 | CCCCCC(=O)c1c(Cn2cncn2)nc2cc(OC)c(OC)cc2c1-c1ccc(OC)c(OC)c1
11 | 200 to 202 | O=C1NC(Cc2ccc(OCc3ccccc3)cn2)C(=O)NC1Cc1ccc(OCc2ccccc2)cc1 (stereo not drawn)
12 | 88 to 90 | CCCC(=O)c1cnc2c(OCCN(C)C)cccc2c1Nc1ccccc1C
13 | 45 to 53 | COc1ccc(S(=O)(=O)N(Cc2cccnc2)C(C(N)=O)C(C)C)cc1 (stereo not drawn)
14 | 183 | Cn1cnnc1C(O)(c1ccc(Cl)cc1)c1cc2c3c(c1)c(-c1cccc(Cl)c1)cc(=O)n3CCC2 (stereo not drawn)
15 | 124 to 127 | COc1ccc2cc(NC(=O)OC(C)(C)C)ccc2c1
16 | 116 to 119 | C=CCc1cccnc1C(=O)OC
17 | 219 to 223 | CN(C)C(=O)C1Cc2ccc(N)cc2NC1=O (stereo not drawn)
18 | 85 to 86 | CCCCCCC(=O)C(NC(=O)C=Cc1ccccc1)C(=O)OC (stereo not drawn)
19 | 179 | O=c1[nH]c2cc(Cl)ccc2c(NCc2ccccc2)c1-c1ccccc1
20 | > 250 | CCOc1cc2cc(C(=O)O)cc(-c3ccnc(Cl)c3)c2cc1OCC
21 | 102 to 103 | CS(=O)c1nc(-c2ccccc2)c(-c2ccccc2)s1 (stereo not drawn)
22 | 169 to 171 | Oc1ccc(CBr)cc1-n1nc2ccccc2n1
23 | 121 | CCCCN1CCC(COC(=O)c2cc(Cl)c(N)cc2OC)C(O)C1 (stereo not drawn)
24 | 66 to 68 | CCCCc1c(Cl)nc(N=CN(C)C)nc1Cl

Row | melting point [°C] | SMILES
25 | 158 to 159 | CCn1nnc(NC(=O)C2c3ccccc3COc3ccccc32)n1 (racemic)
26 | 240 | O=c1[nH]c2ccc3c(c2[nH]1)OC(CO)CC3 (stereo not drawn)
27 | 77 to 78 | O=C(COc1ccc(Cc2ccc(Cl)cc2)cc1)OCc1cccnc1
28 | 193 to 194 | CCCCc1nc2c(N)nc3cc(/C=C/C(=O)OC)ccc3c2n1CC(C)C
29 | 210 to 213 | NNc1cc2c(nn1)CCN(C(=O)c1ccccc1F)C2
30 | 86 to 91 | CC(NC(=O)CCCl)c1ccc(Cl)cc1 (stereo not drawn)
31 | 211 to 213 | Cc1cc(O)ccc1-n1cc(C(=O)O)c(=O)cc1C1=CCCC1
32 | 94.5 to 95.5 | CSc1ccc(C(=O)Cc2cccc(F)c2)cc1
33 | 101 to 105 | CCOC(=O)C(CC)Oc1ccc(-c2nc(-c3ccc(OC(CC)C(=O)OCC)cc3O)nc(-c3ccc(OC(CC)C(=O)OCC)cc3O)n2)c(O)c1 (stereo not drawn)
34 | 175 to 177 | Cc1ccc(-c2nc3ccc(C)cn3c2C(O)C(=O)N(C)C)cc1 (stereo not drawn)
35 | 90 | CCOC(=O)Cc1cc2c(N)cccc2cn1
36 | 275 to 277 | Cc1nccn1Cc1ccc(COc2cccc3c2CN(C2CCC(=O)NC2=O)C3=O)cc1 (stereo not drawn)
37 | 135 to 136 | COc1cc(COc2nn(-c3ccccc3)cc2/C=C/c2ccccn2)ccc1OCc1nc(-c2ccco2)oc1C
38 | 213 to 214 | O=C1Nc2ccccc2C2=NC(CBr)CN12 (stereo not drawn)
39 | 161 to 163 | CCCNC(=O)CCCn1c(CCC)nc2c(N)nc3ccccc3c21
40 | 54 to 57 | CCCCCc1ccc(OCC(O)CC#CCCCC(=O)O)cc1 (stereo not drawn)
41 | 80.5 to 82.4 | CC(=O)c1cc(S(=O)(=O)c2ccccc2)ccc1OCc1ccccc1
42 | 130 to 135 | CCS(=O)(=O)c1ccc(SC2SCC(O)C(O)C2O)cc1 (stereo not drawn)
43 | 162 to 163 | COC(=O)CC[C@H](NC(=O)CCC#Cc1cnc2nc(NC(=O)C(C)(C)C)nc(O)c2c1)C(=O)OC
44 | 252 | CC1c2c(Cl)cccc2N=C2NC(=O)CN21 (stereo not drawn)
45 | 84.6 to 85.7 | CC(C)(C)OC(=O)N1CCC(S(=O)(=O)Cl)CC1
46 | 190 to 193 | COC(=O)C1=C(C)NC2=C(C(=O)CN(CC(O)COc3cccc(C)c3C)C2)C1c1c(F)ccc(Cl)c1Cl (stereo not drawn)
47 | 114 to 116 | O=C1OC2(CC(c3cccc(Oc4ccccc4)c3)=NO2)c2ccccc21 (stereo not drawn)
48 | 107 to 117 | CC(C)(C)NC(=O)C1CCCN1C(=O)C(O)C(Cc1ccccc1)NC(=O)C(CC(N)=O)NC(=O)COc1cccc(NC(=O)OCc2ccccc2)c1 (stereo not drawn)

Row | melting point [°C] | SMILES
49 | 160 to 162 | O=C(O)/C=C/C(=O)/C=C/c1ccc(F)cc1
50 | 146 | CCOC(=O)C(C)=NNc1ccc(C)cc1C
51 | 240 to 242 | NC(=O)c1cc(-c2ccncc2)sc1-c1ccncc1
52 | 58 to 60 | CCOC(=O)C(Cc1ccc(OCCN2CCC(C)(C)c3cc(C(=NOC)c4ccccc4)ccc32)cc1)OCC(F)(F)F (stereo not drawn)
53 | 134 to 135 | O=Cc1ccccc1OC(=O)C(=O)Oc1ccccc1C=O
54 | 231 to 232 | CC1(N2Cc3ccccc3C2=O)CCC(=O)NC1=O (stereo not drawn)
55 | 187 to 190 | CN(CCN1CCC[C@@H](C(=O)O)C1)C1c2ccccc2CCc2ccccc21
56 | 94 to 95 | COc1ccc(C(=O)Cc2cccc(C(F)(F)F)c2)cc1
57 | 220 to 223 | CC(C)Cn1cnc2c(N)nc3c(c21)CCNC3
58 | 201 | COc1ncccc1-c1nc2c(N[C@H]3[C@@H](C(N)=O)[C@@H]4C=C[C@H]3C4)c(Br)cnc2[nH]1
59 | 98 | CCC(Oc1ccc(-n2c(C)nc3cc(C(F)(F)F)ccc32)cc1)C(=O)O (stereo not drawn)
60 | 339 | O=C(Nc1ccc([N+](=O)[O-])cc1Cl)c1ccc(C(=O)Nc2ccc([N+](=O)[O-])cc2Cl)cc1
61 | 219 to 220 | COc1ccc(C2=NN(C3CCN(c4ncnc5sccc45)CC3)C(=O)[C@@H]3CC=CC[C@H]23)cc1OC
62 | 183 to 184 | CC(C)Oc1cc(CCC(=O)NS(=O)(=O)Cc2ccccc2)n(Cc2ccc(Cl)cc2Cl)n1
63 | 273 to 277 | CCOC(=O)C(=O)Nc1ccc2c(c1)-c1c(c(C(=O)C(C#N)C(=O)Nc3ccccc3)nn1-c1ccccc1)CS2 (stereo not drawn)
64 | 188 to 190 | COc1ccc2c(=O)c(C=O)coc2c1
65 | 123 to 125 | O=C(N1CCN(c2ccccc2)CC1)N1CCc2ccccc2CO1
66 | 90 to 92 | CCOC(=O)CCNc1ncccc1NC(=O)c1ccccc1Cl
67 | 130 | CCOC(=O)c1c(OCC)nsc1NC(=O)Oc1ccccc1
68 | 89 to 90 | CC(CN=C(c1ccccc1)c1ccccc1)N=C(c1ccccc1)c1ccccc1 (stereo not drawn)
69 | 255 to 256 | CCn1c(=O)c2c(nc(/C=C/c3cc4c(cc3Br)OCO4)n2C)n(CC)c1=O
70 | 103 to 105 | CCOC(=O)Cc1c(C)n(Cc2ccccc2)c2cccc(OCc3coc(-c4ccccc4)n3)c12
71 | 82 | COC(=O)CCc1cc(C)cc(NC(C)=O)n1
72 | 158 to 159 | CCSc1scnc1C(=O)O

Row | melting point [°C] | SMILES
73 | 320 | O=c1[nH]c2ccccc2n(Cc2nnn[nH]2)c1=O
74 | 453 | Nc1ccc(-c2c(-c3ccccc3)c(-c3ccccc3)c(-c3ccc(N)cc3)c(-c3ccccc3)c2-c2ccccc2)cc1
75 | 146 to 148 | CC(O)(CF)C(=O)Nc1ccc(C(=O)c2ccccc2)cc1 (stereo not drawn)
76 | 262 | Fc1cc(-c2cc(C(F)(F)F)n3ncc(-c4ccncc4)c3n2)ccc1C(F)(F)F
77 | 197 to 198 | CSc1ncc(Cc2ccc(C)nc2)c(=O)[nH]1
78 | 206 to 207 | Cc1nccn1N=Cc1cc(C(C)(C)C)c(O)c(C(C)(C)C)c1
79 | 199 to 201 | COC1=NC2C=C(C(=O)NCC3CC3)C(NC(=O)c3cc(C(F)(F)F)nn3-c3ncccc3Cl)=C(Cl)C2S1 (stereo not drawn)
80 | 201 to 203 | O=C(c1n[nH]c2ccccc12)N1CCCCC1
81 | 103 to 105 | COc1ccc(C=NNS(=O)(=O)c2ccc(C)cc2)cc1
82 | 126 to 128 | COP(=O)(CC(O)c1c(C(C)C)nn(-c2ccccc2)c1-c1ccc(F)cc1)OC (stereo not drawn)
83 | 111 to 113 | CCCCCCCOc1ccc(CNc2ccc(C(=O)OCC)cc2)cc1
84 | 194 to 195 | NS(=O)(=O)c1ccc(S(=O)(=O)N2CCC(=O)CC2)cc1
85 | 133 | Cn1ncc2c(c1=O)SCCNC2C(=O)Cc1ccccc1 (stereo not drawn)
86 | 140 to 141 | COc1c(C)c(NC(=O)CC(C)(C)C)c2c(c1C)C(c1ccc(C(C)C)cc1)C(C)(C)O2 (stereo not drawn)
87 | 68.1 to 68.7 | C=Cc1cn(-c2c(Cl)cc(C(F)(F)F)cc2Cl)nc1C
88 | 136 to 137 | CCC(Cc1ccc(OC)c(CC(=O)Nc2ccc(C(F)(F)F)cc2)c1)C(=O)O (stereo not drawn)
89 | 223 to 224 | CC(=O)NCC1CN(c2ccc(N3CCN(c4nc5ccccc5o4)CC3)c(F)c2)C(=O)O1 (stereo not drawn)
90 | 106 to 108 | CC(C)(CCc1ccc(Cl)c(Cl)c1)CC(=O)O
91 | 269 | Cc1ccc2[nH]c(=O)c(C#N)c(N3CCN(C(=O)c4cccs4)CC3)c2c1
92 | 204 to 206 | COc1cc(C(C)C)c(Oc2cnc(N)nc2N)cc1I
93 | 159 to 162 | CCC(OCCc1c2c3c(c(OCc4ccc(-c5ccccc5)cn4)ccc3n1Cc1ccc(Cl)cc1)SC(C)C2)C(=O)O (stereo not drawn)
94 | 196 to 197 | CCOC(=O)C1=C(C)NC(C)=C(C(=O)OC)C1c1cccc2ccccc12 (stereo not drawn)

Row | SMILES | melting point [°C]
95 | CCCc1c(C(=O)C(C)C)c2ccc(C(N)=O)cc2n1Cc1ccccc1Br | 173 to 174
96 | O=C1c2c(Cl)cccc2-n2cnc(C#Cc3cccc(Cl)c3)c2[C@@H]2CCCN12 | 207 to 209
97 | CCCCN(c1nc(NCCN)nc(N(CCCC)C2CC(C)(C)NC(C)(C)C2)n1)C1CC(C)(C)NC(C)(C)C1 | 140
98 | Cn1ncc2c(c1=O)SCCNC2C(=O)c1ccccc1 (stereo not drawn) | 210
